Experiments:
Assay in all cases: relative viability (nuclei count vs DMSO), 5 days (fraction); higher = more cells survive
[1] = compound: C1=CC(=CC=C1NC(=S)NNC2=C(C=C(C=C2[N+](=O)[O-])C(F)(F)F)[N+](=O)[O-])F [Kobe2602] + O=C(CCCCCCC(=O)Nc1ccccc1)NO [Vorinostat] (partner 1 µM)
Summary of the method: (§1)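 A single step with final 0.05% Triton X-100, 1% formaldehyde and 1 ug/ml Hoechst fixed the cells and stained nuclei 5 days after treatment. Lung cancer cell lines in 1536-well plates had been treated by pin tool the day after seeding with one drug alone or a fixed anchor-drug dose plus five library-drug doses (not always all listed) in √10 steps, and nuclei were counted on 4× images. Relative viability is the ratio of nuclei in treated wells to nuclei in vehicle wells, taken as the median of duplicate plates.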

[2] = compound: O[C@@H](COc1cccc2ncccc12)CN1CCN([C@@H]2c3ccccc3[C@@H]3[C@H](c4ccccc42)C3(F)F)CC1 [Zosuquidar] + C[C@@H](Oc1cc(-c2cnn(C3CCNCC3)c2)cnc1N)c1c(Cl)ccc(F)c1Cl [Crizotinib] (partner 1 µM)
Summary of the method: as §1

[3] = compound: O[C@@H](COc1cccc2ncccc12)CN1CCN([C@@H]2c3ccccc3[C@@H]3[C@H](c4ccccc42)C3(F)F)CC1 [Zosuquidar] + COc1cccc2cc(-c3nc([C@H]4CC[C@H](C(=O)O)CC4)n4ncnc(N)c34)[nH]c12 [OSI-027] (partner 0.5 µM)
Summary of the method: as §1

| Cell Line | relative viability ([1]; first compound 0.2 µM) | relative viability ([1]; first compound 0.6325 µM) | relative viability ([1]; first compound 2 µM) | relative viability ([1]; first compound 6.325 µM) | relative viability ([1]; first compound 20 µM) | relative viability ([2]; first compound 0.01 µM) | relative viability ([2]; first compound 0.03162 µM) | relative viability ([2]; first compound 0.3162 µM) | relative viability ([2]; first compound 1 µM) | relative viability ([3]; first compound 0.01 µM) | relative viability ([3]; first compound 0.03162 µM) | relative viability ([3]; first compound 0.1 µM) | relative viability ([3]; first compound 0.3162 µM) | relative viability ([3]; first compound 1 µM) | relative viability ([2]; first compound 0.1 µM) |
| --- | --- | --- | --- | --- | --- | --- | --- | --- | --- | --- | --- | --- | --- | --- | --- |
| NCI-H661 | 0.777 | 0.799 | 0.753 | 0.825 | 0.827 | 0.993 | 1.07 | 1.05 | 0.906 | 0.654 | 0.67 | 0.596 | 0.714 | 0.695 | – |
| NCI-H1944 | 0.532 | 0.64 | 0.538 | 0.531 | 0.629 | 1.03 | 1.09 | 1.04 | 1.12 | 0.381 | 0.384 | 0.328 | 0.479 | 0.412 | 1.03 |
| NCI-H2170 | 0.765 | 0.813 | 0.732 | 0.717 | 0.84 | 1.18 | 1.22 | 1.19 | 1.17 | 0.701 | 0.731 | 0.641 | 0.743 | 0.713 | 1.21 |
| NCI-H322M | 0.958 | 1.03 | 0.851 | 0.849 | 0.921 | 0.896 | 0.929 | 0.739 | 0.91 | 0.529 | 0.67 | 0.485 | 0.66 | 0.575 | 0.861 |
| LCLC-103H | 0.802 | 0.813 | 0.776 | 0.839 | 0.81 | 1.07 | 1.09 | 0.892 | 0.989 | 0.474 | 0.469 | 0.402 | 0.478 | 0.528 | 0.991 |
| NCI-H647 | 0.613 | 0.582 | 0.64 | 0.583 | 0.601 | 1.03 | 1.09 | 1.14 | 1.1 | 0.64 | 0.63 | 0.552 | 0.886 | 0.723 | 1.03 |
| LK-2 | 0.295 | 0.334 | 0.376 | 0.305 | 0.551 | 0.237 | 0.218 | 0.274 | 0.224 | 0.172 | 0.216 | 0.21 | 0.209 | 0.174 | 0.28 |
| NCI-H1755 | 0.743 | 0.743 | 0.671 | 0.744 | 0.802 | 0.859 | 0.924 | 0.881 | 0.876 | 0.736 | 0.67 | 0.516 | 0.821 | 0.722 | 0.839 |
| EPLC-272H | 0.494 | 0.676 | 0.557 | 0.402 | 0.479 | 0.899 | 0.901 | 0.813 | 0.751 | 0.275 | 0.335 | 0.273 | 0.31 | 0.275 | 0.97 |
| NCI-H2228 | 0.649 | 0.744 | 0.522 | 0.425 | 0.611 | 0.524 | 0.598 | 0.338 | 0.607 | 0.614 | 0.635 | 0.604 | 0.745 | 0.428 | 0.44 |
